Laboratory results published in PubChem BioAssay (NCI).
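Cultured in 96-well plates, cells were exposed to test compound for 48 hours across five concentrations. GI50 marks 50% less growth. At the TGI there is no net growth.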

Tests used:
Assay in all cases: NCI-60 cell line screen, 48 h
KM12 colon = test system: KM12 colon
SW-620 colon = test system: SW-620 colon
HCC-2998 colon = test system: HCC-2998 colon
SNB-75 CNS = test system: SNB-75 CNS
SNB-19 CNS = test system: SNB-19 CNS
786-0 renal = test system: 786-0 renal
IGROV1 ovarian = test system: IGROV1 ovarian
COLO 205 colon = test system: COLO 205 colon
MOLT-4 leukemia = test system: MOLT-4 leukemia
SF-539 CNS = test system: SF-539 CNS

| Compound | TGI (KM12 colon) [µM] | TGI (SW-620 colon) [µM] | TGI (HCC-2998 colon) [µM] | TGI (SNB-75 CNS) [µM] | TGI (SNB-19 CNS) [µM] | TGI (786-0 renal) [µM] | TGI (IGROV1 ovarian) [µM] | TGI (COLO 205 colon) [µM] | TGI (MOLT-4 leukemia) [µM] | TGI (SF-539 CNS) [µM] | GI50 (SNB-75 CNS) [µM] |
| --- | --- | --- | --- | --- | --- | --- | --- | --- | --- | --- | --- |
| COC(=O)/C=C\C(C#N)(C#N)N=Cc1sccc1C | 30.3 | 3.88 | 28.6 | 28.4 | 33.8 | 4.34 | 29 | 2.53 |  |  |  |
| COC(=O)[C@@H]1CC(C(CN)c2cn(C(=O)OC(C)(C)C)c3ccccc23)C(=O)N1C(=O)OC(C)(C)C (some centres undefined) | > 100 | > 100 |  | 33.8 | > 100 | > 100 | 58.1 | 32.8 | 37.6 | 28.3 |  |
| CN1C(=O)CC2CCC(=O)N2c2cccnc21 (centres undefined) | > 100 | > 100 | > 100 |  | > 100 | > 100 | > 100 | > 100 |  | > 100 |  |
| O=S(=O)(O)c1ccc2c(N=Nc3ccc(Cl)cc3)c(O)ccc2c1 | > 100 | > 100 |  | > 100 | > 100 | > 100 | > 100 | > 100 | > 100 |  |  |
| CC1(C)OC[C@@H](O)[C@H](Br)CO1 | > 100 | > 100 | > 100 | > 100 | > 100 | > 100 |  | > 100 | > 100 | > 100 |  |
| CC(C)(C)OC(=O)Cn1ncn(NC(=O)Cc2ccccc2)c1=O | > 10 | > 10 | > 10 |  | > 10 | > 10 | > 10 | > 10 | > 10 | > 10 |  |
| CCOC(=O)c1cc(C2CCN(c3ccccc3)C2=O)c(C(=O)/C=C(/C)N)[nH]1 (centres undefined) | > 100 | > 100 | > 100 | 28.2 | 52.4 | 21.8 | > 100 | > 100 | > 100 |  |  |
| O=C(OC/C=C1C=C(OC(=O)c2ccccc2)/C(=N/N(C(=O)c2ccccc2)c2ccccc2)O\1)c1ccccc1 | 22.8 | 22.5 | 12.4 | 37.9 | 23 | 2.95 | 13.3 |  | 14 |  | 18.5 |
| CN(C(=O)Cc1cc(Cl)c(Cl)cc1NC(=O)CN)[C@H]1CCCC[C@@H]1N1CCCC1 | > 100 | > 100 | 31.6 | 55.9 | > 100 | 38 | > 100 |  | > 100 |  |  |
| Cc1nc2[nH]ncn2c(=O)c1CCO |  | > 10 | > 10 | > 10 | > 10 |  | > 10 | > 10 | > 10 | > 10 |  |
| COc1ccc(C2C3CCCC(C3=O)C(c3ccc(OC)cc3)N2N=O)cc1 (centres undefined) | > 74.1 | > 100 | 59.6 | 62.4 | > 91.2 |  | 97.5 | 42.3 | > 61.6 |  |  |
| NC(=Nc1cccc(Cl)c1)c1ccccc1N | > 100 | > 100 | > 100 | > 100 | > 100 | > 100 | > 100 | > 100 | > 100 |  |  |
| C=CCCCCOC1C=CC(O)C(CO)O1 (centres undefined) | > 100 | > 100 | > 100 |  | > 100 | > 100 | > 100 | > 100 | > 100 | > 100 |  |
| CC1(C)CCCCCC(C)(CCCO)C1=O (centres undefined) | > 100 | > 100 | > 100 | > 100 | > 100 | > 100 | > 100 | > 100 | > 100 |  |  |
| CCOC(=O)c1c(N2CCCC2)ncn(C)c1=S | > 100 | > 100 | > 100 |  | > 100 | > 100 | > 100 | > 100 | > 100 | > 100 |  |
| COc1cccc2cc(C(C)=O)c(=O)oc12 | > 100 | > 100 | > 100 | > 100 |  | > 100 | > 100 | > 100 | > 100 | > 100 |  |
| Cc1ccc(O)c(C2=CC(c3cccc(Br)c3)SC(N)=N2)c1 (centres undefined) | 82.3 | > 100 |  | 61.3 | 32.4 | 74.4 | 46.5 | 34.6 | 63.4 | 50.3 |  |
| CCCN1C(=O)/C(=C\c2ccc(OC)c(OC)c2)SC1=Nc1ccccc1 | > 100 | > 100 | > 100 |  | > 100 | > 100 | > 100 | > 100 | > 100 | > 100 |  |
| COc1ccc(N2C(=O)C3c4[nH]c5ccc(F)cc5c4C4CCC(C(C)(C)C)CC4C3C2=O)cc1 (centres undefined) | > 10 | > 10 | > 10 | 4.87 | > 10 |  | > 10 | > 10 | > 10 | > 10 |  |
| O=C(Nc1cccc2ccccc12)c1ccccc1 | > 100 | > 100 | > 100 | > 100 | > 100 | > 100 | > 100 | > 100 |  | > 100 |  |
| Cc1cccc(C)c1Nc1nc(C)c(C(=O)CC(=O)C(=O)Nc2c(C(C)C)cccc2C(C)C)s1 | > 100 | > 100 | > 100 |  | > 100 | > 100 | > 100 | > 100 | > 100 | > 100 |  |
| N#CCN(CC#N)C1CC=CCC1N(CC#N)CC#N (centres undefined) | > 100 | > 100 |  |  | > 100 | > 100 | > 100 | > 100 | > 100 | > 100 |  |
| CCN(CC)c1ccc2cc(C(=O)Nc3ccc(C)cc3)c(=N)oc2c1 | > 100 | > 100 | > 100 | > 100 | > 100 | > 100 | > 100 | > 100 | > 100 |  |  |
| CCOC(=O)C(C)c1nc2ccc(C(F)(F)F)cc2[nH]c1=O (centres undefined) | > 100 | > 100 | > 100 | > 100 | > 100 | > 100 |  | > 100 | > 100 | > 100 |  |
